Values quoted from earlier work as cited in PMC11070408, “Bifunctional octadentate pseudopeptides as Zirconium-89 chelators for immuno-PET applications” (EJNMMI Radiopharmacy and Chemistry, 2024).

Parameters: method as in Sarbisheh and Salih [2020]
Conditions: ref Sarbisheh and Salih [2020]

For `CC(=O)N(O)CCCCCNC(=O)CCC(=O)N(O)CCCCCNC(=O)CCC(=O)N(O)CCCCCNC(=O)CCC(=O)NCC(CNC(=O)CCC(=O)NCCCCCN(O)C(=O)CCC(=O)NCCCCCN(O)C(=O)CCC(=O)NCCCCCN(O)C(C)=O)Cc1ccc([N+](=O)[O-])cc1` [DFO2], the solubility in water is given as “poor”.
